In patent publication US10538555B2, “Macrocyclic inhibitors of the PD-1/PD-L1 and CD80(B7-1)/PD-L1 protein/protein interactions” (BRISTOL-MYERS SQUIBB COMPANY, priority 2014, dated 2020):
Where two headings read alike, the source gives them in different places. *1 amine or outer side, *2 acyl side, *3 side chain or, on linkers, in order; H or OH if unused. Where a SMILES comes first, the peptide text is derived from it. Bridges are numbered along the chain shown (N, C = ends). [ ]: non-standard residue; d: D form. ξ: configuration not given here. Trp(βS-Me) = C[C@@H](c1c[nH]c2ccccc12)[C@H](N)C(=O)O; Phe(3,4,5-F3) = N[C@@H](Cc1cc(F)c(F)c(F)c1)C(=O)O; Phe(3,4-F2) = N[C@@H](Cc1ccc(F)c(F)c1)C(=O)O; 1Nal = N[C@@H](Cc1cccc2ccccc12)C(=O)O; d(cisHyp) = O=C(O)[C@H]1C[C@@H](O)CN1; Bta = N[C@@H](Cc1csc2ccccc12)C(=O)O; Hyp = O=C(O)[C@@H]1C[C@@H](O)CN1; NMeF = CN[C@@H](Cc1ccccc1)C(=O)O; X1 = O=C([C@H]1COCCN1[*:1])[*:2]; dNMeF = CN[C@H](Cc1ccccc1)C(=O)O; dHyp = O=C(O)[C@H]1C[C@H](O)CN1; NMehSer = CN[C@@H](CCO)C(=O)O; NMeNle = CCCC[C@H](NC)C(=O)O; dPip = O=C(O)[C@H]1CCCCN1; hSer = N[C@@H](CCO)C(=O)O; NMeA = CN[C@@H](C)C(=O)O; Orn = NCCC[C@H](N)C(=O)O; Aze = O=C(O)[C@@H]1CCN1; Dap = NC[C@H](N)C(=O)O; ξC = NC(CS)C(=O)O; Sar = CNCC(=O)O

Target: T1, Human PD-L1/PD-1 (Homo sapiens, UniProt Q9NZQ7)
T1 construct: TVMV protease cleavage site (C); made in house; host or cells: HEK293T cells
T1 sequence (Q9NZQ7 with tags, fused parts or gaps): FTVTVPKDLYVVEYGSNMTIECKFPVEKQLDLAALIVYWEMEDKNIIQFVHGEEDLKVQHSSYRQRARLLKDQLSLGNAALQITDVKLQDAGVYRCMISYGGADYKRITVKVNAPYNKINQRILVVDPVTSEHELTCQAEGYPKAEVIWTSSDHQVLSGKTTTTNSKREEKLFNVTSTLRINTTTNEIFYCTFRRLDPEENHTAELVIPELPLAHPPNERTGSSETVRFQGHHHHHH
Test: HTRF Human PD-L1/PD-1 binding assay (PD-1-Ig/PD-L1-His)
Details: PD-L1-His 10 nM, PD-1-Ig 20 nM
Summary of the method: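 Competition of macrocyclic peptides for PD-1/PD-L1 binding measured by HTRF in dPBS containing 0.1% BSA and 0.05% Tween-20. Compound and PD-L1-His (10 nM final) incubated 15 min before PD-1-Ig (20 nM final) and a further 15 min.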

[1] = class symbol, read-out: HTRF Human PD-L1/PD-1 Binding Assay IC50 Range
[2] = read-out: HTRF Human PD-L1/PD-1 Binding Assay IC50

With `CCCC[C@H]1C(=O)N(C)CC(=O)N[C@@H](CC(=O)O)C(=O)N[C@@H]([C@@H](C)O)C(=O)N(C)[C@@H](Cc2ccccc2)C(=O)N[C@@H](Cc2ccc(O)cc2)C(=O)N(C)CC(=O)N[C@@H](Cc2c[nH]c3ccccc23)C(=O)N[C@@H](Cc2ccc(O)cc2)C(=O)N[C@@H](CC(C)C)C(=O)N[C@H](C(=O)NCC(N)=O)CSCC(=O)N[C@@H](Cc2ccccc2)C(=O)N(C)[C@@H](Cc2ccccc2)C(=O)N1C` [Example 3225] ({CH2CO}-F[NMeF][NMeNle][Sar]DT[NMeF]Y[Sar]WYLCG-NH2; thioether N-13) the IC50 [1] was 1 to 9.9 nM.

Compound `CCCC[C@H]1C(=O)N2CCC[C@@H]2C(=O)N2CC[C@H]2C(=O)N[C@@H](C(C)C)C(=O)N(C)[C@@H](Cc2ccccc2)C(=O)N[C@@H](Cc2ccc(O)cc2)C(=O)N2CCCC[C@@H]2C(=O)N[C@@H](Cc2c[nH]c3ccccc23)C(=O)N[C@@H](Cc2ccc(O)cc2)C(=O)N[C@@H](CC(C)C)C(=O)N[C@H](C(=O)NCC(N)=O)CSCC(=O)N[C@@H](Cc2cc(F)c(F)c(F)c2)C(=O)N(C)[C@@H](Cc2ccccc2)C(=O)N1C` [Example 3221] ({CH2CO}-[Phe(3,4,5-F3)][NMeF][NMeNle][dP][Aze]V[NMeF]Y[dPip]WYLCG-NH2; thioether N-13) has an IC50 [1] of 10 to 99.9 nM.

`CCCC[C@H]1C(=O)N(C)[C@@H](CCCC)C(=O)N[C@@H](CCCNC(=N)N)C(=O)NC(C(=O)NCC(N)=O)CSCC(=O)N[C@@H](Cc2ccc(O)cc2)C(=O)N(C)[C@@H](C)C(=O)N[C@@H](CC(N)=O)C(=O)N2CCC[C@H]2C(=O)N[C@@H](CO)C(=O)N[C@@H](CCO)C(=O)N2C[C@H](O)C[C@H]2C(=O)N[C@@H](Cc2c[nH]c3ccccc23)C(=O)N[C@@H](CO)C(=O)N[C@@H](Cc2csc3ccccc23)C(=O)N1C` (stereo partly drawn) [Example 10035] ({CH2CO}-Y[NMeA]NPS[hSer][Hyp]WS[Bta][NMeNle][NMeNle]R[ξC]G-NH2; thioether N-14) showed an IC50 [1] of 1 to 9.9 nM.

Work on `CCCC[C@H]1C(=O)N2C[C@H](O)C[C@@H]2C(=O)N[C@@H](CC(=O)O)C(=O)N[C@@H](C(C)C)C(=O)N(C)[C@H](Cc2ccccc2)C(=O)N[C@@H](CCC(=O)O)C(=O)N2C[C@H](O)C[C@@H]2C(=O)N[C@@H](Cc2c[nH]c3ccccc23)C(=O)N[C@@H](Cc2ccc(O)cc2)C(=O)N[C@@H](CCC(=O)O)C(=O)N[C@H](C(=O)NCC(N)=O)CSCC(=O)N[C@@H](Cc2ccc(F)c(F)c2)C(=O)N(C)[C@@H](Cc2ccccc2)C(=O)N1C` [Example 9313] ({CH2CO}-[Phe(3,4-F2)][NMeF][NMeNle][d(cisHyp)]DV[dNMeF]E[d(cisHyp)]WYECG-NH2; thioether N-13) yielded an IC50 [2] of 2.7 nM.

`CCCC[C@H]1C(=O)N(C)[C@@H](CCCC)C(=O)N[C@@H](C)C(=O)N[C@H](C(=O)NCC(N)=O)CSCC(=O)N[C@@H](Cc2ccc(O)cc2)C(=O)N(C)[C@@H](C)C(=O)N[C@@H](CC(N)=O)C(=O)N2CCC[C@H]2C(=O)N[C@@H](Cc2cnc[nH]2)C(=O)N[C@@H](CCC(N)=O)C(=O)N2C[C@H](O)C[C@H]2C(=O)N[C@@H](Cc2c[nH]c3ccccc23)C(=O)N[C@@H](CO)C(=O)N[C@@H](Cc2cccc3ccccc23)C(=O)N1C` [Example 1289] ({CH2CO}-Y[NMeA]NPHQ[Hyp]WS[1Nal][NMeNle][NMeNle]ACG-NH2; thioether N-14) gave an IC50 [1] of 1 to 9.9 nM.

Work on `CCCC[C@H]1C(=O)N(C)CC(=O)N[C@@H](CC(=O)O)C(=O)N[C@@H](C(C)C)C(=O)N(C)[C@@H](Cc2ccccc2)C(=O)N[C@@H](Cc2ccc(O)cc2)C(=O)N(C)CC(=O)NC(C)(Cc2c[nH]c3ccccc23)C(=O)N[C@@H](Cc2ccc(O)cc2)C(=O)N[C@@H](CC(C)C)C(=O)N[C@H](C(=O)NCC(N)=O)CSCC(=O)N[C@@H](Cc2ccccc2)C(=O)N(C)[C@@H](Cc2ccccc2)C(=O)N1C` (single isomer, unassigned) [Example 3640-B] yielded an IC50 [1] of 100 to 990 nM.

In the case of `CCCC[C@H]1C(=O)N2C[C@H](O)C[C@@H]2C(=O)N[C@@H](CC(=O)O)C(=O)N[C@@H](C(C)C)C(=O)N(C)[C@@H](Cc2ccccc2)C(=O)N[C@@H](CCC(=O)O)C(=O)N2C[C@H](O)C[C@@H]2C(=O)N[C@@H](Cc2c[nH]c3ccccc23)C(=O)N[C@@H](Cc2ccc(O)cc2)C(=O)N[C@@H](CCCN)C(=O)N[C@H](C(=O)NCC(N)=O)CSCC(=O)N[C@@H](Cc2cc(F)c(F)c(F)c2)C(=O)N(C)[C@@H](Cc2ccccc2)C(=O)N1C` [Example 9332] ({CH2CO}-[Phe(3,4,5-F3)][NMeF][NMeNle][d(cisHyp)]DV[NMeF]E[d(cisHyp)]WY[Orn]CG-NH2; thioether N-13), the IC50 [1] is reported as 10 to 99.9 nM.

`CCCC[C@H]1C(=O)N2CCOC[C@@H]2C(=O)N[C@@H](CC(=O)O)C(=O)N[C@@H](C(C)C)C(=O)N(C)[C@@H](Cc2ccccc2)C(=O)N[C@@H](CCC(=O)O)C(=O)N2CCOC[C@@H]2C(=O)N[C@@H](Cc2c[nH]c3ccccc23)C(=O)N[C@@H](Cc2ccc(O)cc2)C(=O)N[C@@H](CCCN)C(=O)N[C@H](C(=O)NCC(N)=O)CSCC(=O)N[C@@H](Cc2cc(F)c(F)c(F)c2)C(=O)N(C)[C@@H](Cc2ccccc2)C(=O)N1C` [Example 9282] ({CH2CO}-[Phe(3,4,5-F3)][NMeF][NMeNle][X1]DV[NMeF]E[X1]WY[Orn]CG-NH2; thioether N-13) showed an IC50 [1] of 10 to 99.9 nM.

`CCCC[C@H]1C(=O)N(C)CC(=O)N[C@@H](CC(=O)O)C(=O)N[C@@H](C(C)C)C(=O)N(C)[C@@H](Cc2ccccc2)C(=O)N[C@@H](Cc2ccc(O)cc2)C(=O)N(C)CC(=O)N[C@@H]([C@@H](C)c2c[nH]c3ccccc23)C(=O)N[C@@H](Cc2ccc(O)cc2)C(=O)N[C@@H](CC(C)C)C(=O)N[C@H](C(=O)NCC(N)=O)CSCC(=O)N[C@@H](Cc2ccccc2)C(=O)N(C)[C@@H](Cc2ccccc2)C(=O)N1C` [Example 10533] ({CH2CO}-F[NMeF][NMeNle][Sar]DV[NMeF]Y[Sar][Trp(βS-Me)]YLCG-NH2; thioether N-13) gave an IC50 [1] of 1 to 9.9 nM.

Work on `CCCC[C@H]1C(=O)N2C[C@@H](O)C[C@@H]2C(=O)N[C@@H](CC(=O)O)C(=O)N[C@@H](C(C)C)C(=O)N(C)[C@@H](Cc2ccccc2)C(=O)N[C@@H](CCC(=O)O)C(=O)N2C[C@@H](O)C[C@@H]2C(=O)N[C@@H](Cc2c[nH]c3ccccc23)C(=O)N[C@@H](Cc2ccc(O)cc2)C(=O)N[C@@H](CCCN)C(=O)N[C@H](C(=O)NCC(N)=O)CSCC(=O)N[C@@H](Cc2ccc(F)c(F)c2)C(=O)N(C)[C@@H](Cc2ccccc2)C(=O)N1C` [Example 9278] ({CH2CO}-[Phe(3,4-F2)][NMeF][NMeNle][dHyp]DV[NMeF]E[dHyp]WY[Orn]CG-NH2; thioether N-13) yielded an IC50 [1] of 1 to 9.9 nM.

Compound `CCCC[C@H]1C(=O)N(C)[C@@H](CCCC)C(=O)N[C@@H](CC(C)C)C(=O)NC(C(=O)NCC(N)=O)CSCC(=O)N[C@@H](Cc2ccc(O)cc2)C(=O)N(C)[C@@H](C)C(=O)N[C@@H](CC(N)=O)C(=O)N2CCC[C@H]2C(=O)N[C@@H](CC(N)=O)C(=O)N[C@@H](CC(C)C)C(=O)N2CCC[C@H]2C(=O)N[C@@H](Cc2c[nH]c3ccccc23)C(=O)N[C@@H](CO)C(=O)N[C@@H](Cc2c[nH]c3ccccc23)C(=O)N1C` (stereo partly drawn) [Example 9161] ({CH2CO}-Y[NMeA]NPNLPWSW[NMeNle][NMeNle]L[ξC]G-NH2; thioether N-14) has an IC50 [1] of 1 to 9.9 nM.

For `CCCC[C@H]1C(=O)N(C)[C@@H](CCCC)C(=O)N[C@@H](CC(C)C)C(=O)N[C@H](C(=O)NCC(N)=O)CSCC(=O)N[C@@H](Cc2ccc(O)cc2)C(=O)N(C)[C@@H](C)C(=O)N[C@@H](CC(N)=O)C(=O)N2CCC[C@H]2C(=O)N[C@@H](CN)C(=O)N[C@@H](CC(C)C)C(=O)N2C[C@H](O)C[C@H]2C(=O)N[C@@H]([C@@H](C)c2c[nH]c3ccccc23)C(=O)N[C@@H](CO)C(=O)N[C@@H](Cc2c[nH]c3ccccc23)C(=O)N1C` [Example 10530] ({CH2CO}-Y[NMeA]NP[Dap]L[Hyp][Trp(βS-Me)]SW[NMeNle][NMeNle]LCG-NH2; thioether N-14), the IC50 [2] was 15 nM.

`CCCC[C@H]1C(=O)N(C)[C@@H](CCCC)C(=O)N[C@@H](CN)C(=O)N[C@H](C(=O)NCC(N)=O)CSCC(=O)N[C@@H](Cc2ccc(O)cc2)C(=O)N(C)[C@@H](C)C(=O)N[C@@H](CC(=O)O)C(=O)N2CCC[C@H]2C(=O)N[C@@H](Cc2c[nH]cn2)C(=O)N[C@@H](CCC(=O)O)C(=O)N2C[C@H](O)C[C@H]2C(=O)N[C@@H](Cc2c[nH]c3ccccc23)C(=O)N[C@@H](CCN)C(=O)N[C@@H](Cc2cn(CC(=O)O)c3ccccc23)C(=O)N1C` [Example 5220] showed an IC50 [1] of 100 to 990 nM.

Work on `COCC[C@H]1C(=O)N2C[C@@H](O)C[C@@H]2C(=O)N[C@@H](CC(=O)O)C(=O)N[C@@H](C(C)C)C(=O)N(C)[C@@H](Cc2ccccc2)C(=O)N[C@@H](CCC(N)=O)C(=O)N2CCOC[C@@H]2C(=O)N[C@@H](Cc2c[nH]c3ccccc23)C(=O)N[C@@H](Cc2ccc(O)cc2)C(=O)N[C@@H](CC(C)C)C(=O)N[C@H](C(=O)NCC(N)=O)CSCC(=O)N[C@@H](Cc2cc(F)c(F)c(F)c2)C(=O)N(C)[C@@H](Cc2ccccc2)C(=O)N1C` [Example 9266] ({CH2CO}-[Phe(3,4,5-F3)][NMeF][NMehSer](Me)[dHyp]DV[NMeF]Q[X1]WYLCG-NH2; thioether N-13) yielded an IC50 [1] of 1 to 9.9 nM.

`CCCC[C@H]1C(=O)N2C[C@H](O)C[C@@H]2C(=O)N[C@@H](CC(=O)O)C(=O)N[C@@H](C(C)C)C(=O)N(C)[C@@H](Cc2ccccc2)C(=O)N[C@@H](CC(=O)O)C(=O)N2C[C@H](O)C[C@@H]2C(=O)N[C@@H](Cc2c[nH]c3ccccc23)C(=O)N[C@@H](Cc2ccc(O)cc2)C(=O)N[C@@H](CC(=O)O)C(=O)N[C@H](C(=O)NCC(N)=O)CSCC(=O)N[C@@H](Cc2cc(F)c(F)c(F)c2)C(=O)N(C)[C@@H](Cc2ccccc2)C(=O)N1C` [Example 9350] ({CH2CO}-[Phe(3,4,5-F3)][NMeF][NMeNle][d(cisHyp)]DV[NMeF]D[d(cisHyp)]WYDCG-NH2; thioether N-13) showed an IC50 [1] of 10 to 99.9 nM.
